Measurements reported in ChEMBL document CHEMBL4376858, “Structure-Activity Relationships of Novel Thiazole-Based Modafinil Analogues Acting at Monoamine Transporters” (J Med Chem, 2020).
The source made the active and inactive calls.

How the values were obtained:
[1] = target: T1, Sodium-dependent dopamine transporter (Homo sapiens, UniProt Q01959); assay: Inhibition of wild type human dopamine transporter expressed in HEK293 cells assessed as inhibition of [3H]dopamine reuptake preincubated for 5 mins followed by [3H]dopamine addition and measured after 1 min by liquid scintillation analysis; format: cell-based; conditions: read-out: IC50
T1 sequence (Q01959 whole entry): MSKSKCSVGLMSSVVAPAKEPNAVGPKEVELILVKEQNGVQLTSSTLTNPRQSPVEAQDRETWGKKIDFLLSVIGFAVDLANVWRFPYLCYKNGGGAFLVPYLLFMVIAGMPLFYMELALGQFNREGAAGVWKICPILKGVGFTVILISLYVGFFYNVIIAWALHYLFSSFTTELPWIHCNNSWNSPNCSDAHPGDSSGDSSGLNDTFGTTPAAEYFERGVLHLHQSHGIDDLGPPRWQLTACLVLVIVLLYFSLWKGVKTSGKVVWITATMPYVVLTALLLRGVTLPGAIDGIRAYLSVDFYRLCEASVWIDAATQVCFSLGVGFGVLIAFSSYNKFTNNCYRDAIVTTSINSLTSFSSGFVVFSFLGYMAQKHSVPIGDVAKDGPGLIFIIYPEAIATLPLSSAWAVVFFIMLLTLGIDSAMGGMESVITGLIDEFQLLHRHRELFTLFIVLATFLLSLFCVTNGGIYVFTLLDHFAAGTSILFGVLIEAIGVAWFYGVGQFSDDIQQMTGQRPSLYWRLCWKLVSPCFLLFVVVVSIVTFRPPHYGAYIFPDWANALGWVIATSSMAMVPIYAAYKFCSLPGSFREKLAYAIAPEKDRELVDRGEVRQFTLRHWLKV

[2] = target: T2, Sodium-dependent noradrenaline transporter (Homo sapiens, UniProt P23975); assay: Inhibition of wild type human NET expressed in HEK293 cells assessed as inhibition of [3H]-MPP+ reuptake preincubated for 5 mins followed by [3H]MPP+ addition and measured after 3 mins by liquid scintillation counting analysis; format: cell-based
T2 sequence (P23975 whole entry): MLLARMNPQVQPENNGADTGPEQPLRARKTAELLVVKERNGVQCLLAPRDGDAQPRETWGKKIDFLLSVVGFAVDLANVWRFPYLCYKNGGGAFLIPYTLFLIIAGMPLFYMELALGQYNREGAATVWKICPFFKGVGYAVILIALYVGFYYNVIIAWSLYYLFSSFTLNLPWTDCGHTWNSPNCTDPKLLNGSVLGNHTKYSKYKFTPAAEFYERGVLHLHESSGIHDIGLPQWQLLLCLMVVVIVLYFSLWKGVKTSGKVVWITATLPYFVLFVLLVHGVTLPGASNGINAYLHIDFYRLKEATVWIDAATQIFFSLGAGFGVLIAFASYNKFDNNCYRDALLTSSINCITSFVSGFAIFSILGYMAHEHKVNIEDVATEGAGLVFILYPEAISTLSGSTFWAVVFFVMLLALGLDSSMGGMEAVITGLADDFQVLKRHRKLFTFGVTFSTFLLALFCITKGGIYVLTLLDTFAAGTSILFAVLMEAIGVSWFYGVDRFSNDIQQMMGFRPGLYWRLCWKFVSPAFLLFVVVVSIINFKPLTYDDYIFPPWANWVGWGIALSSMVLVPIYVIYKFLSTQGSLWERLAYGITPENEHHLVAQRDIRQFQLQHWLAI

[3] = target: Sodium-dependent serotonin transporter (Homo sapiens, UniProt P31645); format: cell-based, HEK293
Sodium-dependent serotonin transporter, sequence (P31645 whole entry): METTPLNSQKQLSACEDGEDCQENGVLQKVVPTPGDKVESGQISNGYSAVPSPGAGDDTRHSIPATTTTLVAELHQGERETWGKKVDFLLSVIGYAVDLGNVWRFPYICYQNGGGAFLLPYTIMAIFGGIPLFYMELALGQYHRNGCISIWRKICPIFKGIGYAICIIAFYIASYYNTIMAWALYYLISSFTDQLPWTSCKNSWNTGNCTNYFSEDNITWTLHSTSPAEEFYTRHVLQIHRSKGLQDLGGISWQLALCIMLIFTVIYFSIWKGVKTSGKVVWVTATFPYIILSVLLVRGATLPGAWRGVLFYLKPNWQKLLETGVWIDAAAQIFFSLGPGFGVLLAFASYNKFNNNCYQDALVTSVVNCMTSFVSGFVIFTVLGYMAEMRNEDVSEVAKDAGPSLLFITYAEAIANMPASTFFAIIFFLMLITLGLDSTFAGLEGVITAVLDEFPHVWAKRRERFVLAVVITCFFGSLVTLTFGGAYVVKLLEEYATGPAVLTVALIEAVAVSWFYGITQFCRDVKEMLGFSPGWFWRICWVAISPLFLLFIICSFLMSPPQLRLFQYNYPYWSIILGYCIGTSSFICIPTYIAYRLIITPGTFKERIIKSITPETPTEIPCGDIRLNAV
Description: Inhibition of wild type human SERT expressed in HEK293 cells assessed as inhibition of [3H]-5HT reuptake preincubated for 5 mins followed by [3H]5HT addition and measured after 1 min by liquid scintillation counting analysis

[4] = Cardiotoxicity in human Cor.4U hiPSC-CM cells assessed as early after depolarization at 10 uM measured after 30 mins by FluoVolt dye based fluorescence assay; format: toxicity; conditions: 0.5 h
[5] = Cardiotoxicity in human Cor.4U hiPSC-CM cells assessed as effect on action potential duration at 10 uM measured after 30 mins by FluoVolt dye based fluorescence assay; format: toxicity; conditions: 0.5 h
[6] = Cardiotoxicity in human Cor.4U hiPSC-CM cells assessed as effect on action potential shape at 10 uM measured after 30 mins by FluoVolt dye based fluorescence assay; format: toxicity; conditions: 0.5 h
[7] = target: T2, Sodium-dependent noradrenaline transporter; assay: Inhibition of wild type human NET expressed in HEK293 cells assessed as inhibition of [3H]-MPP+ reuptake preincubated for 8 mins followed by [3H]MPP+ addition and measured after 3 mins by liquid scintillation counting analysis; format: cell-based
[8] = Neurotoxicity in rat cortical neuron assessed as inhibition of valid neuron count incubated for 72 hrs by Hoechst 33342 staining based ArrayScan analysis; format: toxicity, cell-based, Cortical neurone; conditions: rat cortical neurons
[9] = Neurotoxicity in rat cortical neuron assessed as inhibition of neurite outgrowth by measuring mean neurite average length incubated for 72 hrs by Hoechst 33342 staining based ArrayScan analysis; format: toxicity, cell-based, Cortical neurone; conditions: rat cortical neurons
[10] = Neurotoxicity in rat cortical neuron assessed as inhibition of neurite total length per neuron incubated for 72 hrs by Hoechst 33342 staining based ArrayScan analysis; format: toxicity, cell-based, Cortical neurone; conditions: rat cortical neurons
Cortical neurone = assay: Cytotoxicity in rat cortical neuron assessed as inhibition of cell viability incubated for 72 hrs by Hoechst 33342 staining based ArrayScan analysis
[11] = target: T1, Sodium-dependent dopamine transporter; assay: Inhibition of human DAT expressed in HEK293 cells preloaded with [3H]-MPP+ assessed as reduction in D-amphetamine-induced tritium efflux at 10 uM treated with compound prior to amphetamine challenge measured every 4 mins by liquid scintillation counting analysis; format: cell-based
[12] = Plasma concentration in Sprague-Dawley rat at 7.5 mg/kg, ip compound dissolved in 40% Kolliphor-EL in water measured after 1 hr by LC-MS/MS analysis; format: ADME, organism-based
[13] = Plasma concentration in Sprague-Dawley rat at 7.5 mg/kg, ip compound dissolved in 40% Kolliphor-EL in water measured after 3 hrs by LC-MS/MS analysis; format: ADME, organism-based
[14] = Plasma concentration in Sprague-Dawley rat at 7.5 mg/kg, ip compound dissolved in 40% Kolliphor-EL in water measured after 7 hrs by LC-MS/MS analysis; format: ADME, organism-based
[15] = Plasma concentration in Sprague-Dawley rat at 7.5 mg/kg, ip compound dissolved in 40% Kolliphor-EL in water measured after 10 hrs by LC-MS/MS analysis; format: ADME, organism-based
[16] = Drug level in Sprague-Dawley rat brain at 7.5 mg/kg, ip compound dissolved in 40% Kolliphor-EL in water measured after 1 hr by LC-MS/MS analysis; format: ADME, organism-based; conditions: read-out: Ct
[17] = Drug level in Sprague-Dawley rat brain at 7.5 mg/kg, ip compound dissolved in 40% Kolliphor-EL in water measured after 3 hrs by LC-MS/MS analysis; format: ADME, organism-based; conditions: read-out: Ct
[18] = Drug level in Sprague-Dawley rat brain at 7.5 mg/kg, ip compound dissolved in 40% Kolliphor-EL in water measured after 7 hrs by LC-MS/MS analysis; format: ADME, organism-based; conditions: read-out: Ct
[19] = Drug level in Sprague-Dawley rat brain at 7.5 mg/kg, ip compound dissolved in 40% Kolliphor-EL in water measured after 10 hrs by LC-MS/MS analysis; format: ADME, organism-based; conditions: in vivo, BLD = below limit of detection
Rattus norvegicus [20] = assay: Increase in extracellular dopamine level in Sprague-Dawley rat nucleus accumbens in brain at 1 mg/kg, ip measured after 50 mins by RP-HPLC analysis based microdialysis method; format: functional, organism-based
Rattus norvegicus [21] = assay: Increase in extracellular dopamine level in Sprague-Dawley rat nucleus accumbens in brain at 10 mg/kg, ip measured after 50 mins by RP-HPLC analysis based microdialysis method relative to control; format: functional
[22] = target: T1, Sodium-dependent dopamine transporter; assay: Potency index, ratio of modafinil IC50 to compound IC50 for wild type human dopamine transporter expressed in HEK293 cells assessed as inhibition of [3H]dopamine reuptake preincubated for 5 mins followed by [3H]dopamine addition and measured after 1 min by liquid scintillation analysis; format: cell-based
[23] = target: T1, Sodium-dependent dopamine transporter; assay: Potency index, ratio of (R)-modafinil IC50 to compound IC50 for wild type human dopamine transporter expressed in HEK293 cells assessed as inhibition of [3H]dopamine reuptake preincubated for 5 mins followed by [3H]dopamine addition and measured after 1 min by liquid scintillation analysis; format: cell-based
[24] = target: T1, Sodium-dependent dopamine transporter; assay: Inhibition of human DAT expressed in HEK293 cells preloaded with [3H]-MPP+ assessed as decrease in tritium efflux at 10 uM measured every 4 mins by liquid scintillation counting analysis; format: cell-based
[25] = Ratio of IC50 for neurotoxicity against rat cortical neuron assessed as inhibition of valid neuron count by ArrayScan analysis to IC50 for wild type human dopamine transporter expressed in HEK293 cells
[26] = Ratio of IC50 for neurotoxicity against rat cortical neuron assessed as inhibition of mean neurite average length by ArrayScan analysis to IC50 for wild type human dopamine transporter expressed in HEK293 cells
[27] = Ratio of IC50 for neurotoxicity against rat cortical neuron assessed as inhibition of neurite total length per neuron by ArrayScan analysis to IC50 for wild type human dopamine transporter expressed in HEK293 cells
[28] = Half life in Sprague-Dawley rat at 7.5 mg/kg, ip compound dissolved in 40% Kolliphor-EL in water by LC-MS/MS analysis; format: ADME, organism-based; conditions: in vivo
[29] = AUC(0 to infinity) in Sprague-Dawley rat at 7.5 mg/kg, ip compound dissolved in 40% Kolliphor-EL in water by LC-MS/MS analysis; format: ADME, organism-based; set-up: dose 7.5 mg/kg, time infinity, route intraperitoneal; conditions: in vivo
[30] = Half life in Sprague-Dawley rat at 10 mg/kg, ip compound dissolved in DMSO/Tween 80/Saline by HPLC-MS analysis; format: ADME, organism-based; conditions: in vivo
[31] = AUC(0 to infinity) in Sprague-Dawley rat at 10 mg/kg, ip compound dissolved in DMSO/Tween 80/Saline by HPLC-MS analysis; format: ADME, organism-based; set-up: dose 10 mg/kg, time infinity, route intraperitoneal; conditions: in vivo
[32] = Plasma concentration in Sprague-Dawley rat at 10 mg/kg, ip compound dissolved in DMSO/Tween 80/Saline measured after 1 hr by HPLC-MS analysis; format: ADME, organism-based

[O-][S@+](Cc1cscn1)[C@@H](c1ccccc1)c1ccc(Br)cc1
IC50 [1]: 63.7 µM | IC50 ([2]; hek293): Not Active | IC50 ([3]; hek293): Not Active | Activity [4]: Non-Toxic | Activity [5]: Non-Toxic | Activity [6]: Non-Toxic

[O-][S+](Cc1nccs1)C(c1ccccc1)c1ccccc1 (stereo not drawn)
IC50 [1]: 14.7 µM | IC50 ([3]; hek293): Not Active | IC50 [7]: 420 µM

COC(=O)Nc1nc2ccc(C(=O)c3cccs3)cc2[nH]1 [NOCODAZOLE]
IC50 at 72 h [8]: 2.22 µM | IC50 at 72 h [9]: 0.097 µM | IC50 at 72 h [10]: 0.0997 µM | Activity (Cortical neurone): Toxic

[O-][S@@+](Cc1cscn1)[C@@H](c1ccccc1)c1ccc(Br)cc1
IC50 [1]: 0.65 µM | IC50 ([2]; read-out: IC50): 73.3 µM | IC50 ([3]; hek293): Not Active | Activity [4]: Non-Toxic | Activity [5]: Non-Toxic | Activity [6]: Non-Toxic | inhibition [11]: Active | IC50 at 72 h [8]: > 100 µM | IC50 at 72 h [9]: > 100 µM | IC50 at 72 h [10]: > 100 µM | concentration at 1 h [12]: 2200 nM | concentration at 3 h [13]: 1210 nM | concentration at 7 h [14]: 89.6 nM | concentration at 10 h [15]: 23.8 nM | concentration at 1 h [16]: 803 nM | concentration at 3 h [17]: 409 nM | concentration at 7 h [18]: 44.3 nM | Ct [19]: Bld | Activity (Rattus norvegicus [20]): inactive | Activity (Rattus norvegicus [21]): 20% | Ratio IC50 [22]: 20 | Ratio IC50 [23]: 10 | inhibition [24]: Active | Ratio IC50 [25]: >100 | Ratio IC50 [26]: >100 | Ratio IC50 [27]: >100 | half-life [28]: 96 min | AUC(0-inf) [29]: 5.84 µM·h

[O-][S+](Cc1cncs1)C(c1ccccc1)c1ccccc1 (stereo not drawn)
IC50 [1]: 4.61 µM | half-life [30]: 54 min | AUC(0-inf) [31]: 13.5 µM·h

CN(C)CCCN1c2ccccc2Sc2ccc(Cl)cc21 [CHLORPROMAZINE]
IC50 at 72 h [8]: 7.99 µM | IC50 at 72 h [9]: 9.02 µM | IC50 at 72 h [10]: 13.8 µM | Activity (Cortical neurone): Non-Toxic

[O-][S@@+](Cc1cscn1)[C@H](c1ccccc1)c1ccc(Br)cc1
IC50 [1]: 2.99 µM | IC50 ([2]; hek293): Not Active | IC50 ([3]; hek293): Not Active | Activity [4]: Non-Toxic | Activity [5]: Non-Toxic | Activity [6]: Non-Toxic

[O-][S@+](Cc1cscn1)[C@H](c1ccccc1)c1ccc(Br)cc1
IC50 [1]: 1.09 µM | IC50 ([2]; read-out: IC50): 52.6 µM | IC50 ([3]; read-out: IC50): 58.6 µM | Activity [4]: Non-Toxic | Activity [5]: Non-Toxic | Activity [6]: Non-Toxic

Cc1ccc([C@H](c2ccccc2)[S@@+]([O-])Cc2cncs2)cc1
IC50 [1]: 3.3 µM | IC50 ([2]; read-out: IC50): 164 µM | IC50 ([3]; hek293): Not Active

Cc1ccc([C@@H](c2ccccc2)[S@+]([O-])Cc2cncs2)cc1
IC50 [1]: 19.6 µM | IC50 ([2]; read-out: IC50): 68.2 µM | IC50 ([3]; read-out: IC50): 201 µM

[O-][S@+](Cc1cncs1)[C@H](c1ccccc1)c1ccc(F)cc1
IC50 [1]: 8.3 µM | IC50 ([2]; read-out: IC50): 230 µM | IC50 ([3]; read-out: IC50): 145 µM

Cc1ccc([C@H](c2ccccc2)[S@+]([O-])Cc2cncs2)cc1
IC50 [1]: 134 µM | IC50 ([2]; hek293): Not Active | IC50 ([3]; hek293): Not Active

[O-][S@@+](Cc1cncs1)[C@H](c1ccccc1)c1ccc(Br)cc1
IC50 [1]: 4.2 µM | IC50 ([2]; read-out: IC50): 67.8 µM | IC50 ([3]; hek293): Not Active

COc1ccc([C@H](c2ccccc2)[S@+]([O-])Cc2cncs2)cc1
IC50 [1]: 65.1 µM | IC50 ([2]; hek293): Not Active | IC50 ([3]; hek293): Not Active

CCCCc1nc(C[S+]([O-])C(c2ccccc2)c2ccccc2)cs1 (stereo not drawn)
IC50 [1]: 13.5 µM | IC50 ([2]; read-out: IC50): 164 µM | IC50 ([3]; hek293): Not Active

Cc1nc(CC[S+]([O-])C(c2ccccc2)c2ccccc2)cs1 (stereo not drawn)
IC50 [1]: 61.4 µM | IC50 ([2]; hek293): Not Active | IC50 ([3]; hek293): Not Active

NC(=O)C[S@@+]([O-])C(c1ccccc1)c1ccccc1 [ARMODAFINIL]
IC50 ([2]; read-out: IC50): 170 µM | concentration at 1 h [32]: 3900 ng/mL | half-life [30]: 24 min | AUC(0-inf) [31]: 1.18 µM·h

COc1ccc([C@@H](c2ccccc2)[S@@+]([O-])Cc2cncs2)cc1
IC50 [1]: 12.2 µM | IC50 ([2]; hek293): Not Active | IC50 ([3]; read-out: IC50): 363 µM

Cc1cnc(C[S+]([O-])C(c2ccccc2)c2ccccc2)s1 (stereo not drawn)
IC50 [1]: 65.6 µM | IC50 ([2]; hek293): Not Active | IC50 ([3]; hek293): Not Active

Cc1ncc(C[S+]([O-])C(c2ccccc2)c2ccccc2)s1 (stereo not drawn)
IC50 [1]: 68.1 µM | IC50 ([2]; hek293): Not Active | IC50 ([3]; hek293): Not Active

Cc1nc(C[S+]([O-])C(c2ccccc2)c2ccccc2)cs1 (stereo not drawn)
IC50 [1]: 3.25 µM | IC50 ([3]; hek293): Not Active | IC50 [7]: 174 µM

[O-][S+](Cc1cncs1)C(c1ccc(F)cc1)c1ccc(F)cc1 (racemic)
IC50 [1]: 6.21 µM | IC50 ([2]; read-out: IC50): 121 µM | IC50 ([3]; hek293): Not Active
